Results as given in article PMC10006169, “A phase I trial of LXS196, a protein kinase C (PKC) inhibitor, for metastatic uveal melanoma” (British Journal of Cancer, 2023).
Where “and” joins values, the source holds several entries; their conditions need not be identical. Equal values may be shown once.

System: patients with MUM
Assay: Adverse events suspected to be study drug related (NCI-CTCAE v4.03)
Format: in vivo, human
Conditions: for Alanine aminotransferase increased / Aspartate aminotransferase increased / Asthenia / Blood creatinine increased / Constipation / Diarrhoea / Dry skin / Fatigue / Hypotension / Nausea / Number of patients with ≥1 adverse event / Rash / Vomiting: suspected drug related
Procedure: Routine safety assessments, including laboratory assessments, physical examinations, vital signs and electrocardiograms (ECGs), were conducted at regular intervals throughout the study and more frequently as needed following patient assessment by the treating physician. Adverse events (AEs) were assessed continuously according to the National Cancer Institute Common Terminology Criteria for Adverse Events (NCI-CTCAE) v4.03.

[1] = 300 mg BID (RDE), n=18, All grades
[2] = 300 mg BID (RDE), n=18, Grade ≥3
[3] = All LXS196 BID patients, n=30, All grades
[4] = All LXS196 BID patients, n=30, Grade ≥3
[5] = All LXS196 patients, N=68, All grades
[6] = All LXS196 patients, N=68, Grade ≥3

SMILES: CC1(N)CCN(c2cccnc2NC(=O)c2nc(-c3ncccc3C(F)(F)F)cnc2N)CC1 [LXS196]
- Dry skin, all grades (All BID): 6 (20.0) n (%)
- Dry skin, grade ≥3 (All BID): 0 n (%)
- Fatigue, all grades (All BID): 4 (13.3) n (%)
- Fatigue, grade ≥3 (All BID): 0 n (%)
- Hypotension, all grades (All BID): 7 (23.3) n (%)
- Nausea, all grades (All BID): 19 (63.3) n (%)
- Nausea, grade ≥3 (All BID): 0 n (%)
- Patients with ≥1 AE, all grades (All BID): 28 (93.3) n (%)
- Patients with ≥1 AE, grade ≥3 (All BID): 6 (20.0) n (%)
- Rash, all grades (All BID): 5 (16.7) n (%)
- Rash, grade ≥3 (All BID): 0 n (%)
- Vomiting, all grades (All BID): 9 (30.0) n (%)
- Vomiting, grade ≥3 (All BID): 0 n (%)
- ALT increased, all grades (All QD): 7 (18.4) n (%)
- ALT increased, grade ≥3 (All QD): 2 (5.3) n (%)
- AST increased, all grades (All QD): 5 (13.2) n (%)
- AST increased, grade ≥3 (All QD): 2 (5.3) n (%)
- Asthenia, all grades (All QD): 6 (15.8) n (%)
- Asthenia, grade ≥3 (All QD): 0 n (%)
- Blood creatinine increased, all grades (All QD): 2 (5.3) n (%)
- Blood creatinine increased, grade ≥3 (All QD): 0 n (%)
- Constipation, all grades (All QD): 4 (10.5) n (%)
- Constipation, grade ≥3 (All QD): 0 n (%)
- Diarrhoea, all grades (All QD): 15 (39.5) n (%)
- Diarrhoea, grade ≥3 (All QD): 0 n (%)
- Dry skin, all grades (All QD): 2 (5.3) n (%)
- Dry skin, grade ≥3 (All QD): 0 n (%)
- Fatigue, all grades (All QD): 10 (26.3) n (%)
- Fatigue, grade ≥3 (All QD): 0 n (%)
- Hypotension, all grades (All QD): 8 (21.1) n (%)
- Nausea, all grades (All QD): 26 (68.4) n (%)
- Nausea, grade ≥3 (All QD): 1 (2.6) n (%)
- Patients with ≥1 AE, all grades (All QD): 35 (92.1) n (%)
- Patients with ≥1 AE, grade ≥3 (All QD): 11 (28.9) n (%)
- Rash, all grades (All QD): 3 (7.9) n (%)
- Rash, grade ≥3 (All QD): 0 n (%)
- Vomiting, all grades (All QD): 12 (31.6) n (%)
- Vomiting, grade ≥3 (All QD): 1 (2.6) n (%)
- ALT increased, all grades (All patients): 15 (22.1) n (%)
- ALT increased, grade ≥3 (All patients): 4 (5.9) n (%)
- AST increased, all grades (All patients): 11 (16.2) n (%)
- AST increased, grade ≥3 (All patients): 4 (5.9) n (%)
- Asthenia, all grades (All patients): 13 (19.1) n (%)
- Asthenia, grade ≥3 (All patients): 0 n (%)
- Blood creatinine increased, all grades (All patients): 7 (10.3) n (%)
- Blood creatinine increased, grade ≥3 (All patients): 0 n (%)
- Constipation, all grades (All patients): 7 (10.3) n (%)
- Constipation, grade ≥3 (All patients): 0 n (%)
- Diarrhoea, all grades (All patients): 31 (45.6) n (%)
- Diarrhoea, grade ≥3 (All patients): 1 (1.5) n (%)
- Dry skin, all grades (All patients): 8 (11.8) n (%)
- Dry skin, grade ≥3 (All patients): 0 n (%)
- Fatigue, all grades (All patients): 14 (20.6) n (%)
- Fatigue, grade ≥3 (All patients): 0 n (%)
- Hypotension, all grades (All patients): 15 (22.1) n (%)
- Hypotension, grade ≥3 (All patients): 6 (8.8) n (%)
- Nausea, all grades (All patients): 45 (66.2) n (%)
- Nausea, grade ≥3 (All patients): 1 (1.5) n (%)
- Patients with ≥1 AE, all grades (All patients): 63 (92.6%) n (%) and 63 (92.6) n (%)
- Patients with ≥1 AE, grade ≥3 (All patients): 17 (25.0%) n (%) and 17 (25.0) n (%)
- Rash, all grades (All patients): 8 (11.8) n (%)
- Rash, grade ≥3 (All patients): 0 n (%)
- Vomiting, all grades (All patients): 21 (30.9) n (%)
- Vomiting, grade ≥3 (All patients): 1 (1.5) n (%)
- Alanine aminotransferase increased (200 mg BID, n=6, All grades): 0 n (%)
- Aspartate aminotransferase increased (200 mg BID, n=6, All grades): 0 n (%)
- Asthenia (200 mg BID, n=6, All grades): 1 (16.7) n (%)
- Blood creatinine increased (200 mg BID, n=6, All grades): 3 (50.0) n (%)
- Constipation (200 mg BID, n=6, All grades): 0 n (%)
- Diarrhoea (200 mg BID, n=6, All grades): 2 (33.3) n (%)
- Dry skin (200 mg BID, n=6, All grades): 1 (16.7) n (%)
- Fatigue (200 mg BID, n=6, All grades): 0 n (%)
- Hypotension (200 mg BID, n=6, All grades): 0 n (%)
- Nausea (200 mg BID, n=6, All grades): 2 (33.3) n (%)
- Number of patients with ≥1 adverse event (200 mg BID, n=6, All grades): 5 (83.3) n (%)
- Rash (200 mg BID, n=6, All grades): 0 n (%)
- Vomiting (200 mg BID, n=6, All grades): 0 n (%)
- Alanine aminotransferase increased (200 mg BID, n=6, Grade ≥3): 0 n (%)
- Aspartate aminotransferase increased (200 mg BID, n=6, Grade ≥3): 0 n (%)
- Asthenia (200 mg BID, n=6, Grade ≥3): 0 n (%)
- Blood creatinine increased (200 mg BID, n=6, Grade ≥3): 0 n (%)
- Constipation (200 mg BID, n=6, Grade ≥3): 0 n (%)
- Diarrhoea (200 mg BID, n=6, Grade ≥3): 0 n (%)
- Dry skin (200 mg BID, n=6, Grade ≥3): 0 n (%)
- Fatigue (200 mg BID, n=6, Grade ≥3): 0 n (%)
- Hypotension (200 mg BID, n=6, Grade ≥3): 0 n (%)
- Nausea (200 mg BID, n=6, Grade ≥3): 0 n (%)
- Number of patients with ≥1 adverse event (200 mg BID, n=6, Grade ≥3): 0 n (%)
- Rash (200 mg BID, n=6, Grade ≥3): 0 n (%)
- Vomiting (200 mg BID, n=6, Grade ≥3): 0 n (%)
- Alanine aminotransferase increased [1]: 5 (27.8) n (%)
- Aspartate aminotransferase increased [1]: 3 (16.7) n (%)
- Asthenia [1]: 4 (22.2) n (%)
- Blood creatinine increased [1]: 2 (11.1) n (%)
- Constipation [1]: 1 (5.6) n (%)
- Diarrhoea [1]: 11 (61.1) n (%)
- Dry skin [1]: 4 (22.2) n (%)
- Fatigue [1]: 3 (16.7) n (%)
- Hypotension [1]: 3 (16.7) n (%)
- Nausea [1]: 14 (77.8) n (%)
- Number of patients with ≥1 adverse event [1]: 17 (94.4) n (%)
- Rash [1]: 4 (22.2) n (%)
- Vomiting [1]: 7 (38.9) n (%)
- Alanine aminotransferase increased [2]: 1 (5.6) n (%)
- Aspartate aminotransferase increased [2]: 1 (5.6) n (%)
- Asthenia [2]: 0 n (%)
- Blood creatinine increased [2]: 0 n (%)
- Constipation [2]: 0 n (%)
- Diarrhoea [2]: 1 (5.6) n (%)
- Dry skin [2]: 0 n (%)
- Fatigue [2]: 0 n (%)
- Hypotension [2]: 0 n (%)
- Nausea [2]: 0 n (%)
- Number of patients with ≥1 adverse event [2]: 2 (11.1) n (%)
- Rash [2]: 0 n (%)
- Vomiting [2]: 0 n (%)
- Alanine aminotransferase increased (400 mg BID, n=6, All grades): 3 (50.0) n (%)
- Aspartate aminotransferase increased (400 mg BID, n=6, All grades): 3 (50.0) n (%)
- Asthenia (400 mg BID, n=6, All grades): 2 (33.3) n (%)
- Blood creatinine increased (400 mg BID, n=6, All grades): 0 n (%)
- Constipation (400 mg BID, n=6, All grades): 2 (33.3) n (%)
- Diarrhoea (400 mg BID, n=6, All grades): 3 (50.0) n (%)
- Dry skin (400 mg BID, n=6, All grades): 1 (16.7) n (%)
- Fatigue (400 mg BID, n=6, All grades): 1 (16.7) n (%)
- Hypotension (400 mg BID, n=6, All grades): 4 (66.7) n (%)
- Nausea (400 mg BID, n=6, All grades): 3 (50.0) n (%)
- Number of patients with ≥1 adverse event (400 mg BID, n=6, All grades): 6 (100) n (%)
- Rash (400 mg BID, n=6, All grades): 1 (16.7) n (%)
- Vomiting (400 mg BID, n=6, All grades): 2 (33.3) n (%)
- Alanine aminotransferase increased (400 mg BID, n=6, Grade ≥3): 1 (16.7) n (%)
- Aspartate aminotransferase increased (400 mg BID, n=6, Grade ≥3): 1 (16.7) n (%)
- Asthenia (400 mg BID, n=6, Grade ≥3): 0 n (%)
- Blood creatinine increased (400 mg BID, n=6, Grade ≥3): 0 n (%)
- Constipation (400 mg BID, n=6, Grade ≥3): 0 n (%)
- Diarrhoea (400 mg BID, n=6, Grade ≥3): 0 n (%)
- Dry skin (400 mg BID, n=6, Grade ≥3): 0 n (%)
- Fatigue (400 mg BID, n=6, Grade ≥3): 0 n (%)
- Hypotension (400 mg BID, n=6, Grade ≥3): 1 (16.7) n (%)
- Nausea (400 mg BID, n=6, Grade ≥3): 0 n (%)
- Number of patients with ≥1 adverse event (400 mg BID, n=6, Grade ≥3): 4 (66.7) n (%)
- Rash (400 mg BID, n=6, Grade ≥3): 0 n (%)
- Vomiting (400 mg BID, n=6, Grade ≥3): 0 n (%)
- Alanine aminotransferase increased [3]: 8 (26.7) n (%)
- Aspartate aminotransferase increased [3]: 6 (20.0) n (%)
- Asthenia [3]: 7 (23.3) n (%)
- Blood creatinine increased [3]: 5 (16.7) n (%)
- Constipation [3]: 3 (10.0) n (%)
- Diarrhoea [3]: 16 (53.3) n (%)
- Dry skin [3]: 6 (20.0) n (%)
- Fatigue [3]: 4 (13.3) n (%)
- Hypotension [3]: 7 (23.3) n (%)
- Nausea [3]: 19 (63.3) n (%)
- Number of patients with ≥1 adverse event [3]: 28 (93.3) n (%)
- Rash [3]: 5 (16.7) n (%)
- Vomiting [3]: 9 (30.0) n (%)
- Alanine aminotransferase increased [4]: 2 (6.7) n (%)
- Aspartate aminotransferase increased [4]: 2 (6.7) n (%)
- Asthenia [4]: 0 n (%)
- Blood creatinine increased [4]: 0 n (%)
- Constipation [4]: 0 n (%)
- Diarrhoea [4]: 1 (3.3) n (%)
- Dry skin [4]: 0 n (%)
- Fatigue [4]: 0 n (%)
- Hypotension [4]: 1 (3.3) n (%)
- Nausea [4]: 0 n (%)
- Number of patients with ≥1 adverse event [4]: 6 (20.0) n (%)
- Rash [4]: 0 n (%)
- Vomiting [4]: 0 n (%)
- Alanine aminotransferase increased [5]: 15 (22.1) n (%)
- Aspartate aminotransferase increased [5]: 11 (16.2) n (%)
- Asthenia [5]: 13 (19.1) n (%)
- Blood creatinine increased [5]: 7 (10.3) n (%)
- Constipation [5]: 7 (10.3) n (%)
- Diarrhoea [5]: 31 (45.6) n (%)
- Dry skin [5]: 8 (11.8) n (%)
- Fatigue [5]: 14 (20.6) n (%)
- Hypotension [5]: 15 (22.1) n (%)
- Nausea [5]: 45 (66.2) n (%)
- Number of patients with ≥1 adverse event [5]: 63 (92.6) n (%)
- Rash [5]: 8 (11.8) n (%)
- Vomiting [5]: 21 (30.9) n (%)
- Alanine aminotransferase increased [6]: 4 (5.9) n (%)
- Aspartate aminotransferase increased [6]: 4 (5.9) n (%)
- Asthenia [6]: 0 n (%)
- Blood creatinine increased [6]: 0 n (%)
- Constipation [6]: 0 n (%)
- Diarrhoea [6]: 1 (1.5) n (%)
- Dry skin [6]: 0 n (%)
- Fatigue [6]: 0 n (%)
- Hypotension [6]: 6 (8.8) n (%)
- Nausea [6]: 1 (1.5) n (%)
- Number of patients with ≥1 adverse event [6]: 17 (25.0) n (%)
- Rash [6]: 0 n (%)
- Vomiting [6]: 1 (1.5) n (%)
